These results are taken from patent publication US7858644B2, “EP4 receptor antagonists” (Asterand UK Limited, priority 2003, dated 2010).

The target in one assay is T1, human EP4 receptor (Homo sapiens, UniProt P35408).
T1 construct: expressed in transfected cells
As to the kind of experiment: Binding ability to human EP4 receptor ([3H]PGE2 displacement). The settings on record: read-out: pKi EP4 (converted). Here is the method:
Membranes were prepared from cells stably transfected with human EP receptor cDNA. In brief, cells were cultured to confluency, scraped from culture flasks, and centrifuged (800 g, 8 minutes, 4° C.). Cells were twice washed in ice cold homogenisation buffer containing 10 mMTris-HCl, 1 mM EDTA. 2Na, 250 mM sucrose, 1 mM PMSF, 0.3 mM indomethacin, pH 7.4, homogenised and re-centrifuged as before. The supernatant was stored on ice and pellets re-homogenised and re-spun. Supernatants were pooled and centrifuged at 40000 g, 10 minutes, 4° C. Resultant membrane pellets were stored at −80° C. until use.
Incubations were performed at suitable temperatures and for suitable times to allow equilibrium to be reached. Non-specific binding was determined in the presence of 10 uM PGE2. Bound and free radiolabel was separated by vacuum manifold filtration using appropriate wash buffers, and bound radiolabel was determined by scintillation counting. Constituents of each of the buffers are included in table 1 below.
This approach follows that set out in Kenakin, T. P., Pharmacologic analysis of drug receptor interaction. Raven Press, New York, 2nd edition.

In another assay the target is T2, human EP2 receptor (Homo sapiens, UniProt P43116).
T2 construct: expressed in transfected cells
Put plainly: Binding ability to human EP2 receptor ([3H]PGE2 displacement). The settings on record: read-out: pKi EP2 (converted). An outline of the steps: (§1)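 Membranes from cells stably transfected with human EP receptor cDNA were incubated to equilibrium with [3H]PGE2 and compound (0.1 to 10 000 nM). Non-specific binding was defined with 10 uM PGE2; bound radioligand was separated by vacuum filtration and counted by scintillation.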

The target of the next assay is T3, human EP3 receptor (Homo sapiens, UniProt P43115).
T3 construct: expressed in transfected cells
T3 sequence (P43115 1-390): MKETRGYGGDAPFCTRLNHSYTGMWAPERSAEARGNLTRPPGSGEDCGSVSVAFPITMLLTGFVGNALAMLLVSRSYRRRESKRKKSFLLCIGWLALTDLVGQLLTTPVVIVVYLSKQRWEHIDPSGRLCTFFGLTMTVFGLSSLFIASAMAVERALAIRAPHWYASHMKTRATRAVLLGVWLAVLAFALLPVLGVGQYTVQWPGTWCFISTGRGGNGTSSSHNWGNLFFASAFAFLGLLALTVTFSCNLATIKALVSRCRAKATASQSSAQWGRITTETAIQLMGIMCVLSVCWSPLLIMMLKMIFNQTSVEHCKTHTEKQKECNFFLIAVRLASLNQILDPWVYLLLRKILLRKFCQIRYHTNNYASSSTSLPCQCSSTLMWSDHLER
As to the kind of experiment: Binding ability to human EP3 receptor ([3H]PGE2 displacement). The settings on record: membranes from cells stably transfected with human EP receptor cDNA; [3H]PGE2 2.5 nM; Cheng-Prusoff from IC50; read-out: pKi EP3 (converted). An outline of the steps: as §1

T1 sequence (P35408 whole entry): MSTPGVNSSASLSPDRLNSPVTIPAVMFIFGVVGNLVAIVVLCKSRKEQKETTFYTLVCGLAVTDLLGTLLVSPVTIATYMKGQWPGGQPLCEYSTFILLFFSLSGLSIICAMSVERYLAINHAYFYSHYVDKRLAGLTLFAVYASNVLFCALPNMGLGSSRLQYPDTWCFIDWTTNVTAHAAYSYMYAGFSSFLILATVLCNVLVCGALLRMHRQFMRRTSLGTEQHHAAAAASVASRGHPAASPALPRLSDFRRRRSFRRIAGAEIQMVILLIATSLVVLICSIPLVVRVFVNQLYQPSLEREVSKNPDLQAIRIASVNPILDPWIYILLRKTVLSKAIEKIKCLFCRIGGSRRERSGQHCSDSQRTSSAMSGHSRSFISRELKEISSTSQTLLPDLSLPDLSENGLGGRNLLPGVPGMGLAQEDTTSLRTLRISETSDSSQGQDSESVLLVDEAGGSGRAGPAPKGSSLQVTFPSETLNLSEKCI
T2 sequence (P43116 whole entry): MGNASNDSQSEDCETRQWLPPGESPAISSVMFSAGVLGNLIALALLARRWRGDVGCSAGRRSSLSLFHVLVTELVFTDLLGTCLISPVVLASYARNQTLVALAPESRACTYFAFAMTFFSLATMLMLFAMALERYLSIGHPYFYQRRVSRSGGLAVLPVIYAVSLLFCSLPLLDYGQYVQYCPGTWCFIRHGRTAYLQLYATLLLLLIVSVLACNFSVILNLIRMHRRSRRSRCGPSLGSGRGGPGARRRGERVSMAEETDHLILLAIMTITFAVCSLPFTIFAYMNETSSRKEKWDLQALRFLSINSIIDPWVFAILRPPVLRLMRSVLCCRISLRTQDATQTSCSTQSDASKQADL

Turning to `Cc1oc(C(=O)O)cc1COc1ccc(-c2cccc(F)c2)cc1` [Compound 104, 4-(3′-Fluoro-biphenyl-4-yloxymethyl)-5-methyl-furan-2-carboxylic acid], the Ki is less than 1 µM on human EP4 receptor, greater than 3.16 µM at human EP2 receptor and greater than 10 µM at human EP3 receptor.
For `CSc1ccccc1-c1ccc(OCc2cc(C(=O)O)oc2C)cc1` [Compound 105, 5-Methyl-4-(2′-methylsulfanyl-biphenyl-4-yloxymethyl)-furan-2-carboxylic acid] the same measures were less than 3.16 µM, greater than 10 µM and greater than 10 µM.
For `COc1ccc(-c2cccc(OCc3cc(C(=O)O)oc3C)c2)cc1OC` [Compound 108, 4-(3′,4′-Dimethoxy-biphenyl-3-yloxymethyl)-5-methyl-furan-2-carboxylic acid] the same measures were less than 3.16 µM, greater than 10 µM and greater than 10 µM.
For the molecule `Cc1oc(C(=O)O)cc1COc1cccc(-c2cccc(C(F)(F)F)c2)c1` [Compound 109, 5-Methyl-4-(3′-trifluoromethyl-biphenyl-3-yloxymethyl)-furan-2-carboxylic acid], the Ki on human EP4 receptor was less than 3.16 µM; on human EP2 receptor, greater than 10 µM; on human EP3 receptor, greater than 10 µM.
Take `CSc1ccc(-c2ccc(OCc3cc(C(=O)O)oc3C)cc2)cc1` [Compound 111, 5-Methyl-4-(4′-methylsulphanyl-biphenyl-4-yloxymethyl)-furan-2-carboxylic acid]: the Ki at human EP4 receptor is less than 3.16 µM; at human EP2 receptor, greater than 10 µM; on human EP3 receptor, greater than 10 µM.
As for `Cc1oc(C(=O)O)cc1COc1ccc(-c2cccc(O)c2)cc1` [Compound 112, 4-(3′-Hydroxy-biphenyl-4-yloxymethyl)-5-methyl-furan-2-carboxylic acid], the values for the Ki on human EP4 receptor, at human EP2 receptor and on human EP3 receptor were less than 3.16 µM, greater than 10 µM and greater than 10 µM, respectively.
For `Cc1oc(C(=O)O)cc1COc1ccc(-c2ccc(N(C)C)cc2)cc1` [Compound 113, 4-(4′-Dimethylamino-biphenyl-4-yloxymethyl)-5-methyl-furan-2-carboxylic acid], the Ki is less than 10 µM on human EP4 receptor, greater than 10 µM at human EP2 receptor and greater than 10 µM on human EP3 receptor.
In the case of `Cc1oc(C(=O)O)cc1COc1ccc(-c2ccccc2OC(F)(F)F)cc1` [Compound 115, 5-Methyl-4-(2′-trifluoromethoxy-biphenyl-4-yloxymethyl)-furan-2-carboxylic acid], the figures for the Ki at human EP4 receptor, on human EP2 receptor and on human EP3 receptor were less than 10 µM, greater than 10 µM and greater than 10 µM, respectively.
For `CC(=O)c1cccc(-c2ccc(OCc3cc(C(=O)O)oc3C)cc2)c1` [Compound 117, 4-(3′-Acetyl-biphenyl-4-yloxymethyl)-5-methyl-furan-2-carboxylic acid], the Ki was less than 3.16 µM at human EP4 receptor, greater than 10 µM at human EP2 receptor and greater than 10 µM on human EP3 receptor.
Consider `Cc1oc(C(=O)O)cc1COc1ccc(-c2ccc(F)cc2)cc1` [Compound 118, 4-(4′-Fluoro-biphenyl-4-yloxymethyl)-5-methyl-furan-2-carboxylic acid], for which the Ki was less than 1 µM on human EP4 receptor, greater than 10 µM at human EP2 receptor and greater than 10 µM at human EP3 receptor.
On to `COc1ccc(-c2ccc(OCc3cc(C(=O)NS(=O)(=O)c4ccccc4)oc3C)cc2)[n+]([O-])c1` [Compound 135, N-{4-[4-(5-Methoxy-1-oxy-pyridin-2-yl)-phenoxymethyl]-5-methyl-furan-2-carbonyl}-benzenesulphonamide], for which the values for the Ki on human EP4 receptor, at human EP2 receptor and on human EP3 receptor were less than 10 µM, greater than 10 µM and greater than 10 µM, respectively.
As for `Cc1oc(C(=O)O)cc1COc1ccc(-c2ncccn2)cc1` [Compound 137, 5-Methyl-4-(4-pyrimidin-2-yl-phenoxymethyl)-furan-2-carboxylic acid], the figures for the Ki on human EP4 receptor, at human EP2 receptor and on human EP3 receptor were less than 10 µM, greater than 10 µM and greater than 10 µM, respectively.
In the case of `Cc1oc(C(=O)NS(=O)(=O)c2ccccc2)cc1COc1ccc(-c2ncccn2)cc1` [Compound 138, N-[5-Methyl-4-(4-pyrimidin-2-yl-phenoxymethyl)-furan-2-carbonyl]-benzenesulphonamide], the figures for the Ki at human EP4 receptor, at human EP2 receptor and on human EP3 receptor were less than 3.16 µM, greater than 10 µM and greater than 10 µM, respectively.
As for `COc1ccc(-c2ccc(OCc3cc(C(=O)O)oc3C)cc2)c(OC)c1` [Compound 140, 4-(2′,4′-Dimethoxy-biphenyl-4-yloxymethyl)-5-methyl-furan-2-carboxylic acid], the Ki is less than 3.16 µM on human EP4 receptor, greater than 10 µM at human EP2 receptor and greater than 10 µM at human EP3 receptor.
Consider `COc1ccc(-c2ccc(OCc3cc(C(=O)NS(=O)(=O)c4ccccc4)oc3C)cc2)c(OC)c1` [Compound 141, N-[4-(2′,4′-Dimethoxy-biphenyl-4-yloxymethyl)-5-methyl-furan-2-carbonyl]-benzenesulphonamide], for which the Ki was less than 0.316 µM on human EP4 receptor, greater than 10 µM at human EP2 receptor and greater than 10 µM at human EP3 receptor.
Regarding `COc1ccc(-c2ccc(OCc3cc(C(=O)NS(=O)(=O)c4c(C)noc4C)oc3C)cc2)c(OC)c1` [Compound 142, 3,5-Dimethyl-isoxazole-4-sulphonic acid [4-(2′,4′-dimethoxy-biphenyl-4-yloxymethyl)-5-methyl-furan-2-carbonyl]-amide], the Ki is less than 0.1 µM at human EP4 receptor, greater than 10 µM on human EP2 receptor and greater than 10 µM at human EP3 receptor.
For `COc1ccc(-c2ccc(OCc3cc(C(=O)O)oc3C)cc2)c(C)c1` [Compound 144, 4-(4′-Methoxy-2′-methyl-biphenyl-4-yloxymethyl)-5-methyl-furan-2-carboxylic acid], the Ki was less than 1 µM on human EP4 receptor, greater than 10 µM on human EP2 receptor and greater than 10 µM at human EP3 receptor.
For the molecule `Cc1oc(-c2nnn[nH]2)cc1COc1ccc(-c2ccccc2)cc1` [Compound 149, 5-[4-(Biphenyl-4-yloxymethyl)-5-methyl-furan-2-yl]-1H-tetrazole], the values for the Ki on human EP4 receptor, at human EP2 receptor and at human EP3 receptor were less than 0.1 µM, greater than 10 µM and greater than 10 µM, respectively.
`Cc1oc(C(=O)O)cc1CSc1ccc(-c2ccc(OC(F)F)cc2)cc1` [Compound 153, 4-(4′-Difluoromethoxy-biphenyl-4-ylsulphanylmethyl)-5-methyl-furan-2-carboxylic acid]: the results for the Ki at human EP4 receptor, on human EP2 receptor and at human EP3 receptor were less than 1 µM, greater than 10 µM and greater than 10 µM, respectively.
With `Cc1ccccc1S(=O)(=O)NC(=O)c1cc(CSc2ccc(-c3ccc(OC(F)F)cc3)cc2)c(C)o1` [Compound 154, N-[4-(4′-Difluoromethoxy-biphenyl-4-ylsulphanylmethyl)-5-methyl-furan-2-carbonyl]-2-methyl-benzenesulphonamide], the Ki on human EP4 receptor was less than 0.0316 µM; at human EP2 receptor it was greater than 3.16 µM; on human EP3 receptor, greater than 1 µM.
For `Cc1oc(C(=O)NS(=O)(=O)c2ccccc2)cc1CSc1ccc(-c2ccc(OC(F)F)cc2)cc1` [Compound 155, N-[4-(4′-Difluoromethoxy-biphenyl-4-ylsulphanylmethyl)-5-methyl-furan-2-carbonyl]-benzenesulphonamide], in that order: less than 1 µM, greater than 3.16 µM and greater than 3.16 µM.
For the molecule `Cc1ccccc1S(=O)(=O)NC(=O)c1cc(C[S+]([O-])c2ccc(-c3ccc(OC(F)F)cc3)cc2)c(C)o1` (stereo not drawn) [Compound 156, N-[4-(4′-Difluoromethoxy-biphenyl-4-ylsulphinylmethyl)-5-methyl-furan-2-carbonyl]-2-methyl-benzenesulphonamide], the Ki is less than 10 µM at human EP4 receptor, greater than 10 µM on human EP2 receptor and greater than 10 µM on human EP3 receptor.
As to `Cc1ccccc1S(=O)(=O)NC(=O)c1cc(CS(=O)(=O)c2ccc(-c3ccc(OC(F)F)cc3)cc2)c(C)o1` [Compound 156a, N-[4-(4′-Difluoromethoxy-biphenyl-4-sulfonylmethyl)-5-methyl-furan-2-carbonyl]-2-methyl-benzenesulfonamide], the Ki on human EP4 receptor was less than 10 µM; at human EP2 receptor it was greater than 10 µM; at human EP3 receptor, greater than 10 µM.
Consider `Cc1oc(C(=O)O)cc1CNc1ccc(-c2ccccc2)cc1` [Compound 160, 4-(Biphenyl-4-ylaminomethyl)-5-methyl-furan-2-carboxylic acid], for which the Ki on human EP4 receptor is less than 3.16 µM; on human EP2 receptor, greater than 10 µM; on human EP3 receptor, greater than 10 µM.
In the case of `COc1ccc(-c2ccc(NCc3cc(C(=O)NS(=O)(=O)c4ccccc4C)oc3C)cc2)nc1` [Compound 167, N-(4-{[4-(5-Methoxy-pyridin-2-yl)-phenylamino]-methyl}-5-methyl-furan-2-carbonyl)-2-methyl-benzenesulphonamide], the Ki on human EP4 receptor is less than 0.316 µM; at human EP2 receptor it was greater than 10 µM; at human EP3 receptor, greater than 10 µM.
